Experimental findings from ChEMBL document CHEMBL3638854, “Chemical compounds” (2015) are described below.

The test concerns the target T1, Ileal sodium/bile acid cotransporter (Homo sapiens, UniProt Q12908).
T1 sequence (Q12908 whole entry): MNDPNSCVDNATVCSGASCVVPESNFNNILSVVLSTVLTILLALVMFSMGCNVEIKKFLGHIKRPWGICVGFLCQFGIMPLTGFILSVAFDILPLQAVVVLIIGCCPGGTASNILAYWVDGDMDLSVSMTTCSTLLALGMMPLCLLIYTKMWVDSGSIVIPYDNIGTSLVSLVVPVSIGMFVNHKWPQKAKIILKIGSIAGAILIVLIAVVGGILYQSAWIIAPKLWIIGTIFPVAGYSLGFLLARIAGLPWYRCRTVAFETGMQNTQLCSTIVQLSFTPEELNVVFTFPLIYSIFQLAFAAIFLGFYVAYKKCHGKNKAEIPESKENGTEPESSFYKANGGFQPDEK
The test can be described thus: Inhibition Assay: On the day of the uptake experiment, 10 mM HEPES was added to Hank's Balanced Salt Solution, and the pH was adjusted to 7.4 with TRIS (HBSSH). The assay buffer was prepared by adding 100 uM [3H]-taurocholate and 10 uM cold taurocholate to room temperature HBSSH. A separate washing buffer was prepared by adding 10 uM cold taurocholate to HBSSH (30 ml per assay plate) and placed on ice. Using 100% DMSO, 8 point, 3-fold dilution curves for each test compound was prepared starting at 200 uM. Similarly, an 8 point dose response curve was prepared of the control compound [(3R,5R)-3-butyl-3-ethyl-7,8-bis(methyloxy)-5-phenyl-2,3,4,5-tetrahydro-1,4-benzothiazepine 1,1-dioxide (Brieaddy, L. E. WO9605188, 1996)] starting at 1.8 mM. Drug plates were created by adding 3 uL of each concentration to a v-bottom 96-well plate then diluted 60-fold with 177 uL of assay buffer. Plates were removed from the incubator and allowed to cool to ambient temperature.

SMILES strings stand for the structures.

On to `CCCC[C@]1(CC)CS(=O)(=O)c2cc(CN[C@@H](CCS(C)(=O)=O)C(=O)O)c(OC)cc2[C@@H](c2ccccc2)N1`, for which the IC50 was found to be 13 nM.

One may read the IC50 as the concentration needed to halve the response being measured.
